Measurements as given in patent publication US5753610A, “Perfume containing (6E) -2,3-dihydrofarnesol” (Takasago International Corporation, priority 1995, dated 1998).
In brackets after ≈: the same amount, converted by molar mass. Where two headings read alike, the source gives them in different places.

How the values were obtained:
[1] = test system: human skin; test: Patch test on human skin (inside of upper arms); details: for skin irritation: 10% in lanolin, 30 subjects, first 24 hours and subsequent 24 hours
[2] = test system: bacteria listed in Table 1; test: Antibacterial test on the bacteria listed in Table 1 (overall statements); format: cell-based; details: for antimicrobial activity compared with the (6E)-2,3-dihydrofarnesol described before: same test, bacteria listed in Table 1
Description: (§1) The minimum inhibitory concentrations of (6E)-2,3-dihydrofarnesol synthesized in Synthesis Example 1 on bacteria listed in Table 1 were determined in the following manner by the step dilution method in an agar medium.
(§2) 10 g of brain heart infusion medium (manufactured by Nissui Seiyaku K.K.), 10 g of dry bouillon (manufactured by Nissui Seiyaku K.K.), 4 g of yeast extract powder (manufactured by Difco Laboratories) and 14 g of agar were added to 1,000 ml of distilled water and dissolved therein by heating. Then the obtained solution was pipetted in 10 ml portions into test tubes and sterilized under elevated pressure. Then it was heated again and sustained in the state of a solution. Subsequently, each test solution and ethanol or DMSO (dimethyl sulfoxide) free from any antimicrobial compound of the present invention (employed as a control) were added thereto in amounts of 5 to 200 μl. After mixing, the solutions were poured into plastic Petri dishes (inner diameter: 90 mm) and solidified.
(§3) The medium thus solidified in each Petri dish was divided into 9 parts. Then 5 μl portions of suspensions of the test microorganisms except acne bacteria in distilled water (cell or spore count: 10^8 -10^9 /ml) were inoculated thereinto and incubated at 30° C. for 48 hours.
(§4) In the case of the acne bacteria, a GAM medium (manufactured by Nissui Seiyaku K.K.) was pipetted in 6 ml portions into screwed test tubes (10×105 mm) and sterilized. After adding sample solutions, a culture medium of the acne bacteria was inoculated in 5 μl portions and incubated at 37° C. for 48 hours followed by the judgement of the growth.
Further, the (6E)-2,3-dihydrofarnesol synthesized in Synthesis Example 2 and the (3S)-(6E)-2,3-dihydrofarnesol synthesized in Synthesis Example 3 were subjected to the same test by using the bacteria listed in Table 1.

[3] = test system: skin; details: background, restricts use on a mass scale; cited from earlier work
[4] = test system: Staphylococcus aureus; test: Antibacterial test, step dilution method in agar medium; format: cell-based; details: 30° C., 48 hours, read-out: minimum inhibitory concentration (MIC)
Description: as §1, §2, §3

[5] = test system: indigenous skin bacteria; test: as above; format: cell-based; details: 30° C., 48 hours, read-out: minimum inhibitory concentration (MIC)
Description: as §1, §2, §3

[6] = test system: coryne bacteria; test: as above; format: cell-based; details: 30° C., 48 hours, read-out: minimum inhibitory concentration (MIC)
Description: as §1, §2, §3

[7] = test system: bacteria listed in Table 1; details: JP-A-60-64913; cited from earlier work
[8] = test system: Guinea pig skin; details: in vivo
Description: A sensitization test with the use of Guinea pigs was carried out in accordance with the Magnusson method by using (a) the (6E)-2,3-dihydrofarnesol of a purity of 99% or above, (b) the (6E)-2,3-dihydrofarnesol of a purity of 52% and (d) the (3S)-(6E)-2,3-dihydrofarnesol.
Then the same test was performed by using farnesol [(2E,6E)-form: (2E,6Z)-form: (2Z,6E)-form: (2Z,6Z)-form=1:1:1:1] which was an analog of the (6E)-2,3-dihydrofarnesol of the present invention.

[9] = test system: human skin; details: in vivo
Description: The obtained solution was then applied onto patches (Finnchamber, manufactured by Taisho Pharmaceutical Co., Ltd.). These patches were adhered to the inside of upper arms of 30 subjects. After 24 hours, the patches were peeled from the skin and the skin irritation was examined. Further, the skin irritation was examined after the subsequent 24 hours.

[10] = test system: acne bacteria; test: Antibacterial test, acne bacteria in GAM medium; format: cell-based; details: 37° C., 48 hours
Description: as §1, §4

[11] = test system: Bacillus subtilis; test: Antibacterial test, step dilution method in agar medium; format: cell-based; details: 30° C., 48 hours
Description: as §1, §2, §3

[12] = test system: Pseudomonas aeruginosa; test: as above; format: cell-based; details: 30° C., 48 hours
Description: as §1, §2, §3

With `CC(C)=CCC/C(C)=C/CCC(C)CCO` (stereo not drawn) [(a), (6E)-2,3-dihydrofarnesol] the skin irritation [1] was “no skin irritation” and the “antimicrobial activity compared with the (6E)-2,3-dihydrofarnesol described before” value [2] was “almost the same as those described above, though some differences were observed”.
In the case of `CC(C=O)Cc1ccc(C(C)C)cc1` (stereo not drawn) [cyclamen aldehyde], the skin sensitization [3] is listed as “skin sensitization”.
Molecule `CC(C)=CCCC(C)=CCCC(C)=CCO` [farnesol] has an MIC [4] of 50 µg/mL (≈ 225 µM), an MIC [5] of 50 µg/mL (≈ 225 µM) and an MIC [6] of 25 µg/mL (≈ 112 µM). For the same molecule, the antimicrobial activity [7] was “has an antimicrobial activity”.
In the case of `CC(C)=CCC/C(C)=C/CCC(C)CCO` (stereo not drawn) [(6E)-2,3-dihydrofarnesol], the “sensitization, human skin” value ([1]; 10% in a lanolin solution) is reported as “no sensitization” and the “antimicrobial activity compared with farnesol” value [2] is reported as “superior to farnesol in the antimicrobial activity on some bacteria”.
For `CC(C)=CCC/C(C)=C/CC[C@H](C)CCO` [(d), (3S)-(6E)-2,3-dihydrofarnesol], the sensitization [8] was “high safety without any sensitization”, the skin irritation [1] was “no skin irritation” and the “antimicrobial activity compared with the (6E)-2,3-dihydrofarnesol described before” value [2] was “antimicrobial activity similar to the above-mentioned (6E)-2,3-dihydrofarnesol”. For the same molecule, the “antimicrobial activity compared with the (6E)-2,3-dihydrofarnesol described before” value ([2]; listed as (3S)-(6E)-2,3-dihydrofarnesol synthesized in Synthesis Example 3) was “almost the same as those described above, though some differences were observed”.
With `CC(C)=CCC/C(C)=C/CCC(C)CCO` (stereo not drawn) [(b), (6E)-2,3-dihydrofarnesol] the skin irritation [9] was “no skin irritation”, the “concentration at which an antimicrobial activity was exerted” value [10] was no more than 10 ppm and the “minimum inhibitory concentration (MIC)” value [11] was 20 ppm. For the same molecule, the “minimum inhibitory concentration (MIC)” value [12] was 20 ppm and the “concentration at which an antimicrobial activity was observed” value ([2]; bacteria of Table 1) was no more than 30 ppm.
